# According to patent publication US11602519B1, “Method for preventing myocardial infarction using eucalyptol” (KING FAISAL UNIVERSITY, priority 2021, dated 2023):
# Key:
# Format in all cases: in vivo, Wister rats
# [1] = system: TLR pathway (TLR 2, TLR 4, MYD 88, and TRIF); assay: TLR pathway protein expression by Western blot in cardiac tissue, ISO-induced MI
# Protocol: Animals were distributed into five groups randomly (n=6). The animals in normal and eucalyptol control groups were administered either saline or eucalyptol for 3 weeks and then saline (s.c) on the last two days of the experiment (20th and 21st days). The animals in the myocardial infarction (MI) control group were given saline orally for 3 weeks, then challenged with Isoproterenol (ISO) (85 mg/kg, s.c.) as stated before on the 20th and 21st days to induce MI. The animals in the eucalyptol pretreatment groups were pretreated with eucalyptol (either 100 or 200 mg/kg) orally for 3 weeks then confronted with ISO (85 mg/kg s.c.) on the last two days of the experiment. All experimental animals were killed 24 hrs after the second dose of ISO. For detection of the Toll-Like Receptors pathway protein expressions, Western blot was performed according to known methods. Values were mentioned as mean SEM (n=6). Densitometry inquiry was accomplished via Image software for Western analysis. Statistical analysis appraisal was done via GraphPad Prism 5.
# [2] = system: Bax, Bcl2, Caspase 3 and 9; assay: Apoptotic status within the myocardium in ISO-induced MI (Bax, Bcl-2 mRNA; Caspase 3 and 9)
# Protocol: (§1) Animals were distributed into five groups randomly (n=6). The animals in normal and eucalyptol control groups were administered either saline or eucalyptol for 3 weeks and then saline (s.c) on the last two days of the experiment (20th and 21st days). The animals in the myocardial infarction (MI) control group were given saline orally for 3 weeks, then challenged with Isoproterenol (ISO) (85 mg/kg, s.c.) as stated before on the 20th and 21st days to induce MI. The animals in the eucalyptol pretreatment groups were pretreated with eucalyptol (either 100 or 200 mg/kg) orally for 3 weeks then confronted with ISO (85 mg/kg s.c.) on the last two days of the experiment. All experimental animals were killed 24 hrs after the second dose of ISO. The extracted heart tissues were homogenated in 10% phosphate buffer to be used for the measurement of numerous biochemical parameters, including cardiac enzymes, apoptotic markers, inflammatory mediators' markers, and total protein. ELISA kits were consumed to measure cardiac enzymes: CPK, CK-MB, cTnT, and cTnI; apoptotic markers: Caspase 3 and Caspase 9 and inflammatory mediators: TNF-α, IL-1β, and NFκB. All ELISA Kits were used according to the manufacturer's protocols and using a microplate reader SpectraMax i.3× (Molecular Devices, USA). Real-time PCR was preformed according to known techniques. Primer sequences used in this study were as follows: Bcl-2-[…] NO: 1), Bcl-2-[…] ID NO:2), Bax-[…] NO: 3), Bax-[…] ID NO: 4), […] ID NO: 5), […] ID NO: 6), […] ID NO: 7), […] ID NO: 8), MyD88 -[…] ID NO: 9), […] ID NO: 11), […] ID NO: 12), β-[…] NO: 13), β-[…] ID NO: 14).
# [3] = system: ISO induced MI animals; assay: Infarct size determination (TTC staining) in ISO-induced MI; conditions: pretreatment 100, 200 mg/kg, 21 days, vs ISO induced MI group
# Protocol: Animals were distributed into five groups randomly (n=6). The animals in normal and eucalyptol control groups were administered either saline or eucalyptol for 3 weeks and then saline (s.c) on the last two days of the experiment (20th and 21st days). The animals in the myocardial infarction (MI) control group were given saline orally for 3 weeks, then challenged with Isoproterenol (ISO) (85 mg/kg, s.c.) as stated before on the 20th and 21st days to induce MI. The animals in the eucalyptol pretreatment groups were pretreated with eucalyptol (either 100 or 200 mg/kg) orally for 3 weeks then confronted with ISO (85 mg/kg s.c.) on the last two days of the experiment. All experimental animals were killed 24 hrs after the second dose of ISO. Subsequent to ECG determination, blood samples were collected and the hearts were directly removed and balanced using an animal weighing scale prior to storage. The obtained blood samples were centrifuged and the serum from different experimental groups was frozen in −80° C. for further biochemical examinations. Frozen hearts were cut into 4-5 transverse incubated in 10% TTC (dissolved phosphate buffer, pH 7.4) for 25 min. at room temperature, fixed using 10% formaldehyde, and finally quantified using Image J® program (National Institutes of Health, University of Wisconsin).
# [4] = system: ISO induced MI animals; assay: Heart rate and ECG recording in ISO-induced myocardial infarction; conditions: for Heart Rate / P Wave / P-R interval / QRS complex / QT interval / R-R interval / ST segment: mean ± SD, n=6
# Protocol: Animals were distributed into five groups randomly (n=6). The animals in normal and eucalyptol control groups were administered either saline or eucalyptol for 3 weeks and then saline (s.c) on the last two days of the experiment (20th and 21st days). The animals in the myocardial infarction (MI) control group were given saline orally for 3 weeks, then challenged with Isoproterenol (ISO) (85 mg/kg, s.c.) as stated before on the 20th and 21st days to induce MI. The animals in the eucalyptol pretreatment groups were pretreated with eucalyptol (either 100 or 200 mg/kg) orally for 3 weeks then confronted with ISO (85 mg/kg s.c.) on the last two days of the experiment. All experimental animals were killed 24 hrs after the second dose of ISO. At the end of the experiments, urethane-anesthetized rats (1.5 g/kg) were prone positioned to obtain uninterrupted ECG recordings using noninvasive computerized ECG apparatus from. Kent Scientific (USA). Heart rate and ECG components including ST segment, wave. QT, P-R and R-R intervals, and QRS complex were electronically measured.
# [5] = system: ISO induced MI animals; assay: Cardiac enzymes by ELISA in ISO-induced MI
# Protocol: (§2) Animals were distributed into five groups randomly (n=6). The animals in normal and eucalyptol control groups were administered either saline or eucalyptol for 3 weeks and then saline (s.c) on the last two days of the experiment (20th and 21st days). The animals in the myocardial infarction (MI) control group were given saline orally for 3 weeks, then challenged with Isoproterenol (ISO) (85 mg/kg, s.c.) as stated before on the 20th and 21st days to induce MI. The animals in the eucalyptol pretreatment groups were pretreated with eucalyptol (either 100 or 200 mg/kg) orally for 3 weeks then confronted with ISO (85 mg/kg s.c.) on the last two days of the experiment. All experimental animals were killed 24 hrs after the second dose of ISO. The extracted heart tissues were homogenated in 10% phosphate buffer to be used for the measurement of numerous biochemical parameters, including cardiac enzymes, apoptotic markers, inflammatory mediators' markers, and total protein. ELISA kits were consumed to measure cardiac enzymes: CPK, CK-MB, cTnT, and cTnI; apoptotic markers: Caspase 3 and Caspase 9 and inflammatory mediators: TNF-α, IL-1β, and NFκB. All ELISA Kits were used according to the manufacturer's protocols and using a microplate reader SpectraMax i.3× (Molecular Devices, USA).
# [6] = system: TLR pathway (TLR 2, TLR 4, MYD 88, and TRIF); assay: TLR pathway mRNA expression by real-time PCR in ISO-induced MI; conditions: pretreatment 100, 200 mg/kg, 21 days, vs ISO induced MI control group
# Protocol: as §1, with “ISO.” for “ISO. The extracted heart tissues were homogenated in 10% phosphate buffer to be used for the measurement of numerous biochemical parameters, including cardiac enzymes, apoptotic markers, inflammatory mediators' markers, and total protein. ELISA kits were consumed to measure cardiac enzymes: CPK, CK-MB, cTnT, and cTnI; apoptotic markers: Caspase 3 and Caspase 9 and inflammatory mediators: TNF-α, IL-1β, and NFκB. All ELISA Kits were used according to the manufacturer's protocols and using a microplate reader SpectraMax i.3× (Molecular Devices, USA).”
# [7] = system: HSP-60 and inflammatory markers (TNF-α, IL-6 and NFκB); assay: HSP-60 and inflammatory mediators in ISO-induced MI
# Protocol: as §2
# [8] = eucalyptol control group, no ISO
# [9] = pretreatment (100 and 200 mg/kg, 21 days) vs MI animals
# [10] = Eucalyptol 100 mg/kg orally 21 days, then ISO
# [11] = Eucalyptol 200 mg/kg orally 21 days, then ISO
# [12] = Eucalyptol control group, no ISO
# [13] = pretreatment 100, 200 mg/kg, 21 days, vs ISO induced MI group
smiles,measurement,setting,value
"CC12CCC(CC1)C(C)(C)O2 [Eucalyptol, 1,8-cineole]",TLR pathway protein content,[1]; [8],no effect
same,"post-myocardial infarction intensification of TLR pathway protein expression (TLR 2, TLR 4, MYD 88, TRIF)","[1]; pretreatment 100 and 200 mg/kg, cardiac tissue, Western blot",lessened
same,"Bax, Bcl2, Caspase 3 and 9",[2]; [8],no effect
same,Bax relative mRNA expression,[2]; [9],deteriorated
same,Bcl-2 mRNA expression,[2]; [9],intensified
same,Caspase 3 and 9 activities,[2]; [9],deteriorated
same,infarcted area magnitude (infarct size),[3],significant infarcted restricting action
same,Heart Rate,"[4]; Eucalyptol 100 mg/kg orally 21 days, then ISO 85 mg/kg s.c.",294 ± 21.06 ≠ beat/min
same,P Wave,[4]; [10],0.015 ± 0.001 ≠ sec.
same,P-R interval,[4]; [10],0.212 ± 0.012 ≠ sec.
same,QRS complex,[4]; [10],0.038 ± 0.001 ≠ sec.
same,QT interval,[4]; [10],0.064 ± 0.003 ≠ sec.
same,R-R interval,[4]; [10],0.180 ± 0.004 ≠ sec.
same,ST segment,[4]; [10],0.061 ± 0.009 ≠ mV
same,Heart Rate,"[4]; Eucalyptol 200 mg/kg orally 21 days, then ISO 85 mg/kg s.c.",337.16 ± 14.98 ≠ beat/min
same,P Wave,[4]; [11],0.015 ± 0.001 ≠ sec.
same,P-R interval,[4]; [11],0.222 ± 0.05 ≠ sec.
same,QRS complex,[4]; [11],0.035 ± 0.001 ≠ sec.
same,QT interval,[4]; [11],0.061 ± 0.003 ≠ sec.
same,R-R interval,[4]; [11],0.183 ± 0.056 ≠ sec.
same,ST segment,[4]; [11],0.046 ± 0.009 ≠ mV
same,P Wave,[4]; [12],0.019 ± 0.002 s
same,P-R interval,[4]; [12],0.230 ± 0.012 s
same,QRS complex,[4]; [12],0.042 ± 0.001 s
same,QT interval,[4]; [12],0.047 ± 0.002 s
same,R-R interval,[4]; [12],0.222 ± 0.012 s
same,ST segment,[4]; [12],0.025 ± 0.002 mV
same,Heart Rate,"[4]; Eucalyptol control group: eucalyptol for 3 weeks, saline s.c. instead of ISO",398.16 ± 43.67 beat/min
same,heart rate and electrocardiographic (ECG) patterns,[4]; [8],normal
same,HR as well as ECG alterations,[4]; [13],reversed
same,"cardiac enzymes (CPK, CK-MB, cTnT, cTnI)",[5]; [8],normal
same,Cardiac Tropinine I (cTnI),[5]; [13],significantly diminished
same,Cardiac Tropinine T (cTnT),[5]; [13],significantly diminished
same,Creatine Kinase Myocardial Bound (CK-MB),[5]; [13],significantly diminished
same,Creatine Phosphokinase (CPK),[5]; [13],significantly diminished
same,MYD 88 relative mRNA expression level,[6],considerably (p<0.05) declined
same,TLR 2 relative mRNA expression level,[6],considerably (p<0.05) declined
same,TLR 4 relative mRNA expression level,[6],considerably (p<0.05) declined
same,TRIF relative mRNA expression level,[6],considerably (p<0.05) declined
same,"HSP-60, IL-6 and NFκB, 200 mg/kg compared with 100 mg/kg",[7]; dose of 200 mg/kg vs 100 mg/kg,further significant reduction
same,"TNF-α, 200 mg/kg compared with 100 mg/kg",[7]; dose of 200 mg/kg vs 100 mg/kg,non-significant difference
same,"HSP-60 and inflammatory markers (TNF-α, IL-6 and NFκB)",[7]; [8],no effect
same,myocardial infarction elevation in HSP 60,[7]; pretreatment 100 and 200 mg/kg,diminished
same,"myocardial infarction elevation in inflammatory mediators (TNF-α, IL-6 and NFκB)",[7]; pretreatment 100 and 200 mg/kg,diminished
